In experiment [1] the test system is Human Epithelial Breast Cancer Cells (MCF-7). The experiment is described as follows: Antiproliferative effect, 3H-thymidine incorporation in MCF-7 cells with and without estrogen. It counts as cell-based. Particulars: for 3H-thymidine incorporation % of estrogen value: estrogen alone 1 nM (reference). The protocol:
(§1) MCF-7 cells were cultured in growth medium supplemented with 10% fetal bovine serum (FBS). At 85% confluence, cells were sub-cultured in 5% FBS serum stripped medium, phenol red free for 24 hours prior to the treatment of the test chemical. After 24 hours of treatment cell proliferation was measured using ^3H-thymidine incorporation. These test chemicals were tested in the presence and absence of estrogen to address if they have anti-estrogenic activity in addition to their antiproliferative effect. The study was done in triplicate and a control was used with solvent only. Control received solvent only at <0.1% ethanol. Estrogen was tested at 1 nM (=0.27 ng E2/ml). Exemplary plant essential oil compounds were tested at 50 ug/ml.
as §1, with “(0.27” for “(=0.27”, “Plant” for “Exemplary plant”

The test system of experiment [2] is MCF-7 cells. The experiment is described as follows: Dose-response effect on E2-induced cell growth, viable cell count (trypan blue, haemocytometer). It counts as cell-based, human. Particulars: E2 10 nM alone; Day 5. On the procedure: MCF-7 cells were cultured in growth medium supplemented with 10% fetal bovine serum (FBS). At 85% confluence, cells were sub-cultured in 6 well petri-dishes and supplemented with 5% FBS serum stripped medium, phenol red free for 24 hours prior to the treatment of different concentrations of the test chemicals. After 5 days of treatment cells were trypsinized, collected using Eppendorf microcentrifuge. The cell pellets were resuspended in 1% trypan blue and three aliquots (10 ul each) of the viable cell suspension were counted using a haemocytometer assay. Each sample was then counted three times and the data shown is the average of three counts. These test chemicals were tested in the presence of 10 nM estrogen (=2.7 ng estrogen/ml). Two wells per test concentration were used. This experiment was repeated two times. Control received solvent only at <0.1% ethanol.

The mark [3] stands for this setting: Table 1, estrogen alone 1 nM, 24 hours treatment.
Where [4] appears, read: Table 2, estrogen alone 1 nM, 24 hours treatment.

Regarding Estrogen [reference compound], the “3H-thymidine incorporation % of estrogen value” in experiment [1] (Table 1) is listed as 100%. Further, in experiment [1] (setting [3]), the “3H-thymidine incorporation % of control value” was 158% and the “3H-thymidine incorporation dpm/ug protein” value came out at 658.6 dpm/ug protein. Also, the “3H-thymidine incorporation % of estrogen value” in experiment [1] (Table 2) is 100%. In addition, in experiment [1] (setting [4]), the “3H-thymidine incorporation % of control value” is 151.6% and the “3H-thymidine incorporation dpm/μg protein” value turned out to be 664.2 dpm/μg protein. Moreover, in experiment [2], the “Cell count % of control” value turned out to be 145%, the Cell count average is on record as 32.0 × (10^4)/ml, the “Cell count well #1” value is 36 × (10^4)/ml and the “Cell count well #2” value is 28 × (10^4)/ml.

These data come from patent US6812258B2, “Cancer treatment composition and method using natural plant essential oils” (Ecosmart Technologies, Inc., priority 1998, dated 2004).
